# Laboratory results reported in PubChem BioAssay (NCI).
#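 Values below derive from 48-hour exposures of cells grown in 96-well plates, with endpoints linearly interpolated between the two concentrations bracketing the appropriate inhibition level. Abbreviation: GI50, concentration required for 50% inhibition of growth. TGI marks complete inhibition of growth.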
# Assays:
# Assay in all cases: growth of human tumour cells (NCI), 48 h
# NCI-H226 lung = system: NCI-H226 lung
# OVCAR-5 ovarian = system: OVCAR-5 ovarian
# RXF 393 renal = system: RXF 393 renal
# ACHN renal = system: ACHN renal
# COLO 205 colon = system: COLO 205 colon
# A498 renal = system: A498 renal
# EKVX NSCLC = system: EKVX NSCLC
# MDA-MB-231 breast = system: MDA-MB-231 breast
# HOP-62 NSCLC = system: HOP-62 NSCLC
# HS 578T breast = system: HS 578T breast
# LOX IMVI melanoma = system: LOX IMVI melanoma
# UACC-257 melanoma = system: UACC-257 melanoma
# UO-31 renal = system: UO-31 renal
# BT-549 breast = system: BT-549 breast
# IGROV1 ovarian = system: IGROV1 ovarian
# CAKI-1 renal = system: CAKI-1 renal
# SNB-19 CNS = system: SNB-19 CNS
# OVCAR-8 ovarian = system: OVCAR-8 ovarian
# PC-3 prostate = system: PC-3 prostate
# U251 CNS = system: U251 CNS
# HOP-92 NSCLC = system: HOP-92 NSCLC
# HT29 colon = system: HT29 colon
# CCRF-CEM leukemia = system: CCRF-CEM leukemia
# HCC-2998 colon = system: HCC-2998 colon
# OVCAR-3 ovarian = system: OVCAR-3 ovarian
# SN12C renal = system: SN12C renal
# K-562 leukemia = system: K-562 leukemia
# UACC-62 melanoma = system: UACC-62 melanoma
# SR leukemia = system: SR leukemia
# NCI-H522 lung = system: NCI-H522 lung
# RPMI-8226 leukemia = system: RPMI-8226 leukemia
# HCT-15 colon = system: HCT-15 colon
# MCF7 breast = system: MCF7 breast
# HL-60(TB) leukemia = system: HL-60(TB) leukemia
# SF-539 CNS = system: SF-539 CNS
# NCI-H460 lung = system: NCI-H460 lung
# SNB-75 CNS = system: SNB-75 CNS
# SK-OV-3 ovarian = system: SK-OV-3 ovarian
# NCI-H23 lung = system: NCI-H23 lung
# SF-295 CNS = system: SF-295 CNS
# SW-620 colon = system: SW-620 colon
# OVCAR-4 ovarian = system: OVCAR-4 ovarian
# SK-MEL-5 melanoma = system: SK-MEL-5 melanoma
# TK-10 renal = system: TK-10 renal
# T-47D breast = system: T-47D breast
# A549 NSCLC = system: A549 NSCLC
# SF-268 CNS = system: SF-268 CNS
# MALME-3M melanoma = system: MALME-3M melanoma
# MOLT-4 leukemia = system: MOLT-4 leukemia
# KM12 colon = system: KM12 colon
# SK-MEL-28 melanoma = system: SK-MEL-28 melanoma
# 786-0 renal = system: 786-0 renal
# DU-145 prostate = system: DU-145 prostate
# HCT-116 colon = system: HCT-116 colon
smiles,measurement,setting,value
NC(=Nc1ccc(OCCCCCCCCn2ccnn2)cc1)c1ccccc1,GI50,NCI-H226 lung,853 nM
same,TGI,NCI-H226 lung,12100 nM
same,GI50,OVCAR-5 ovarian,432 nM
same,TGI,OVCAR-5 ovarian,17300 nM
same,GI50,RXF 393 renal,304 nM
same,TGI,RXF 393 renal,6290 nM
same,GI50,ACHN renal,714 nM
same,TGI,ACHN renal,24700 nM
same,GI50,COLO 205 colon,238 nM
same,TGI,COLO 205 colon,1140 nM
same,GI50,A498 renal,4750 nM
same,TGI,A498 renal,28400 nM
same,GI50,EKVX NSCLC,286 nM
same,TGI,EKVX NSCLC,> 40900 nM
same,GI50,MDA-MB-231 breast,557 nM
same,TGI,MDA-MB-231 breast,12700 nM
same,GI50,HOP-62 NSCLC,466 nM
same,TGI,HOP-62 NSCLC,15000 nM
same,GI50,HS 578T breast,271 nM
same,TGI,HS 578T breast,7440 nM
same,GI50,LOX IMVI melanoma,482 nM
same,TGI,LOX IMVI melanoma,13100 nM
same,GI50,UACC-257 melanoma,952 nM
same,TGI,UACC-257 melanoma,18500 nM
same,GI50,UO-31 renal,565 nM
same,TGI,UO-31 renal,19900 nM
same,GI50,BT-549 breast,656 nM
same,TGI,BT-549 breast,12200 nM
same,GI50,IGROV1 ovarian,564 nM
same,TGI,IGROV1 ovarian,16800 nM
same,GI50,CAKI-1 renal,260 nM
same,TGI,CAKI-1 renal,21000 nM
same,GI50,SNB-19 CNS,757 nM
same,TGI,SNB-19 CNS,> 49900 nM
same,GI50,OVCAR-8 ovarian,462 nM
same,TGI,OVCAR-8 ovarian,3970 nM
same,GI50,PC-3 prostate,337 nM
same,TGI,PC-3 prostate,> 44900 nM
same,GI50,U251 CNS,427 nM
same,TGI,U251 CNS,28800 nM
same,GI50,HOP-92 NSCLC,1200 nM
same,TGI,HOP-92 NSCLC,28800 nM
same,GI50,HT29 colon,293 nM
same,TGI,HT29 colon,884 nM
same,GI50,CCRF-CEM leukemia,271 nM
same,TGI,CCRF-CEM leukemia,19400 nM
same,GI50,HCC-2998 colon,535 nM
same,TGI,HCC-2998 colon,11200 nM
same,GI50,OVCAR-3 ovarian,126 nM
same,TGI,OVCAR-3 ovarian,5000 nM
same,GI50,SN12C renal,495 nM
same,TGI,SN12C renal,16100 nM
same,GI50,K-562 leukemia,144 nM
same,TGI,K-562 leukemia,> 56000 nM
same,GI50,UACC-62 melanoma,215 nM
same,TGI,UACC-62 melanoma,13100 nM
same,GI50,SR leukemia,606 nM
same,TGI,SR leukemia,> 100000 nM
same,GI50,NCI-H522 lung,207 nM
same,TGI,NCI-H522 lung,1900 nM
same,GI50,RPMI-8226 leukemia,404 nM
same,TGI,RPMI-8226 leukemia,17800 nM
same,GI50,HCT-15 colon,236 nM
same,TGI,HCT-15 colon,22900 nM
same,GI50,MCF7 breast,124 nM
same,TGI,MCF7 breast,18800 nM
same,GI50,HL-60(TB) leukemia,239 nM
same,TGI,HL-60(TB) leukemia,2900 nM
same,GI50,SF-539 CNS,239 nM
same,TGI,SF-539 CNS,870 nM
same,GI50,NCI-H460 lung,208 nM
same,TGI,NCI-H460 lung,10300 nM
same,GI50,SNB-75 CNS,163 nM
same,TGI,SNB-75 CNS,29200 nM
same,GI50,SK-OV-3 ovarian,532 nM
same,TGI,SK-OV-3 ovarian,32800 nM
same,GI50,NCI-H23 lung,458 nM
same,TGI,NCI-H23 lung,17900 nM
same,GI50,SF-295 CNS,204 nM
same,TGI,SF-295 CNS,11500 nM
same,GI50,SW-620 colon,148 nM
same,TGI,SW-620 colon,> 40800 nM
same,GI50,OVCAR-4 ovarian,4260 nM
same,TGI,OVCAR-4 ovarian,> 62900 nM
same,GI50,SK-MEL-5 melanoma,157 nM
same,TGI,SK-MEL-5 melanoma,1720 nM
same,GI50,TK-10 renal,3000 nM
same,TGI,TK-10 renal,45000 nM
same,GI50,T-47D breast,449 nM
same,TGI,T-47D breast,34400 nM
same,GI50,A549 NSCLC,458 nM
same,TGI,A549 NSCLC,> 46300 nM
same,GI50,SF-268 CNS,1170 nM
same,TGI,SF-268 CNS,25400 nM
same,GI50,MALME-3M melanoma,300 nM
same,TGI,MALME-3M melanoma,15900 nM
same,GI50,MOLT-4 leukemia,585 nM
same,TGI,MOLT-4 leukemia,> 49600 nM
same,GI50,KM12 colon,269 nM
same,TGI,KM12 colon,19000 nM
same,GI50,SK-MEL-28 melanoma,662 nM
same,TGI,SK-MEL-28 melanoma,22900 nM
same,GI50,786-0 renal,643 nM
same,TGI,786-0 renal,> 44100 nM
same,GI50,DU-145 prostate,446 nM
same,TGI,DU-145 prostate,24600 nM
same,GI50,HCT-116 colon,325 nM
same,TGI,HCT-116 colon,12700 nM
